Measurements taken from patent US5861405A, “S-substituted 1,3,7-trialkyl-xanthine derivatives” (priority 1994, dated 1999).

Columns and labels:
[1] = biological target: A1 receptors, guinea pig brain; conditions: vs [3H]CHA in guinea pig brain; read-out: Ki (A1), Shimada et al.; cited from earlier work
[2] = biological target: A2 receptors, rat striatum; conditions: vs [3H]NECA in rat striatum; read-out: Ki (A2a), Shimada et al.; cited from earlier work
A2 receptors, rat brain = conditions: read-out: Ki (A2a), Erickson et al.; cited from earlier work
[3] = biological target: rat striatal A2a receptors (Rattus norvegicus, UniProt P30543); test: Radioligand binding, [3H]CGS 21680, rat striatal A2a receptors; parameters: Rat cerebral cortical membranes and striatal membranes were prepared; from tissue; host or cells: rat striatal membranes; conditions: Table I; vs [3H]CGS21680 (5 nM), rat striatal A2 receptors; read-out: Ki (A2a)
rat striatal A2a receptors, sequence (P30543 whole entry): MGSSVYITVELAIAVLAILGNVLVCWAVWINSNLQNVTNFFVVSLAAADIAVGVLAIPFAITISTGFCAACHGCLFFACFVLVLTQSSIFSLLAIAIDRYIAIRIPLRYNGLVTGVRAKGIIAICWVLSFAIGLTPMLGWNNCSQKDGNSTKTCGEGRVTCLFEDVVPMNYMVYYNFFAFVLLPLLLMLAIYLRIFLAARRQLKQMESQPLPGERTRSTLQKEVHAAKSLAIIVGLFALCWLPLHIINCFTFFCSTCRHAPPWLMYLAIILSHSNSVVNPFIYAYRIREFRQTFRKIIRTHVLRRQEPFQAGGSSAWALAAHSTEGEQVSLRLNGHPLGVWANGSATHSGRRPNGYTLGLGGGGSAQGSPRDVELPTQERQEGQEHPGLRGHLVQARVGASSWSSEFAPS

Ki [3]: 44 ± 19 nM
SMILES: CCCn1c(=O)c2[nH]c(/C=C/c3ccccc3)nc2n(CCC)c1=O [Compound 47]
Ki [1]: 1800 nM
Ki [2]: 26 nM
Ki (A2 receptors, rat brain): 85 nM
